Species on record: Rattus norvegicus
Assay: DrugMatrix - Regimen: Daily Repeat
Format: toxicity, organism-based, Sprague-Dawley
Parameters: regimen Daily Repeat, gender Male, age 6-8 weeks
Settings: in vivo, po, route oral GAVAGE, […]; for ABSOLUTE BASOPHIL / ABSOLUTE EOSINOPHIL / ABSOLUTE LYMPHOCYTE / ABSOLUTE MONOCYTE / ABSOLUTE SEGMENTED NEUTROPHIL / BASOPHIL / EOSINOPHIL / ERYTHROCYTE COUNT / HEMATOCRIT / HEMOGLOBIN / LEUKOCYTE COUNT / LYMPHOCYTE / MEAN CORPUSCULAR HEMOGLOBIN / MEAN CORPUSCULAR HEMOGLOBIN CONCENTRATION / MEAN CORPUSCULAR VOLUME / MONOCYTE / NEUTROPHIL / NUCLEATED RED BLOOD CELLS / PLATELET COUNT: tissue Blood; for ALANINE AMINOTRANSFERASE / ALKALINE PHOSPHATASE / ASPARTATE AMINOTRANSFERASE / BLOOD UREA NITROGEN / CARBON DIOXIDE / CHLORIDE / CHOLESTEROL / CREATINE PHOSPHOKINASE / CREATININE / GLUCOSE / LACTATE DEHYDROGENASE / LIPASE / PHOSPHORUS / POTASSIUM / SODIUM / TOTAL BILIRUBIN / TOTAL PROTEIN / URIC ACID: tissue Plasma
[1] = 0 mg/kg, 72 h, dose level Control, time 3 day
[2] = 0 mg/kg, 120 h, dose level Control, time 5 day
[3] = 10 mg/kg, 72 h, dose level Low, time 3 day

## CCOC(=O)C1=C(C)NC(C)=C(C(=O)OC)C1c1cccc([N+](=O)[O-])c1 (stereo not given) [NITRENDIPINE]
[1]
  ABSOLUTE BASOPHIL: 0 CELLS/uL
  ABSOLUTE EOSINOPHIL: 0 CELLS/uL
  ABSOLUTE LYMPHOCYTE: 9244.83 CELLS/uL
  ABSOLUTE MONOCYTE: 102 CELLS/uL
  ABSOLUTE SEGMENTED NEUTROPHIL: 869.83 CELLS/uL
  BASOPHIL: 0%
  EOSINOPHIL: 0%
  ERYTHROCYTE COUNT: 5.43 x10E6/uL
  HEMATOCRIT: 34.03%
  HEMOGLOBIN: 13.27 G/DL
  LEUKOCYTE COUNT: 10.22 x10E3/uL
  LYMPHOCYTE: 90.33%
  MEAN CORPUSCULAR HEMOGLOBIN: 24.48 pg
  MEAN CORPUSCULAR HEMOGLOBIN CONCENTRATION: 39.03 G/DL
  MEAN CORPUSCULAR VOLUME: 62.75 fL
  MONOCYTE: 1%
  NEUTROPHIL: 8.67%
  NUCLEATED RED BLOOD CELLS: 0.17 /100WBC
  PLATELET COUNT: 989 x10E3/uL
  ALANINE AMINOTRANSFERASE: 77 u/L
  ALKALINE PHOSPHATASE: 464.83 u/L
  ASPARTATE AMINOTRANSFERASE: 89.83 u/L
  BLOOD UREA NITROGEN: 12.17 mg/dL
  CARBON DIOXIDE: 34.17 mmol/L
  CHLORIDE: 98.33 MEQ/L
  CHOLESTEROL: 75.17 mg/dL
  CREATINE PHOSPHOKINASE: 367.67 u/L
  CREATININE: 0.16 mg/dL
  GLUCOSE: 142.67 mg/dL
  LACTATE DEHYDROGENASE: 139.33 u/L
  LIPASE: 9.5 u/L
  PHOSPHORUS: 10.85 mg/dL
  POTASSIUM: 6.38 MEQ/L
  SODIUM: 143.2 MEQ/L
  TOTAL BILIRUBIN: 0.2 mg/dL
  TOTAL PROTEIN: 5.77 G/DL
  URIC ACID: 0.7 mg/dL
[2]
  ABSOLUTE BASOPHIL: 0 CELLS/uL
  ABSOLUTE EOSINOPHIL: 0 CELLS/uL
  ABSOLUTE LYMPHOCYTE: 8295.33 CELLS/uL
  ABSOLUTE MONOCYTE: 84.67 CELLS/uL
  ABSOLUTE SEGMENTED NEUTROPHIL: 970 CELLS/uL
  BASOPHIL: 0%
  EOSINOPHIL: 0%
  ERYTHROCYTE COUNT: 5.74 x10E6/uL
  HEMATOCRIT: 36.22%
  HEMOGLOBIN: 13.85 G/DL
  LEUKOCYTE COUNT: 9.35 x10E3/uL
  LYMPHOCYTE: 88.67%
  MEAN CORPUSCULAR HEMOGLOBIN: 24.13 pg
  MEAN CORPUSCULAR HEMOGLOBIN CONCENTRATION: 38.25 G/DL
  MEAN CORPUSCULAR VOLUME: 63.08 fL
  MONOCYTE: 1%
  NEUTROPHIL: 10.33%
  NUCLEATED RED BLOOD CELLS: 0.17 /100WBC
  PLATELET COUNT: 883.83 x10E3/uL
  ALANINE AMINOTRANSFERASE: 64.5 u/L
  ALKALINE PHOSPHATASE: 425.67 u/L
  ASPARTATE AMINOTRANSFERASE: 88.5 u/L
  BLOOD UREA NITROGEN: 14.17 mg/dL
  CARBON DIOXIDE: 30.5 mmol/L
  CHLORIDE: 100.33 MEQ/L
  CHOLESTEROL: 55.33 mg/dL
  CREATINE PHOSPHOKINASE: 287.17 u/L
  CREATININE: 0.2 mg/dL
  GLUCOSE: 162.83 mg/dL
  LACTATE DEHYDROGENASE: 111.33 u/L
  LIPASE: 10.5 u/L
  PHOSPHORUS: 10.32 mg/dL
  POTASSIUM: 5.13 MEQ/L
  SODIUM: 143.93 MEQ/L
  TOTAL BILIRUBIN: 0.17 mg/dL
  TOTAL PROTEIN: 5.9 G/DL
  URIC ACID: 0.77 mg/dL
[3]
  ABSOLUTE BASOPHIL: 0 CELLS/uL
  ABSOLUTE EOSINOPHIL: 0 CELLS/uL
  ABSOLUTE LYMPHOCYTE: 9214.67 CELLS/uL
  ABSOLUTE MONOCYTE: 145.33 CELLS/uL
  ABSOLUTE SEGMENTED NEUTROPHIL: 940 CELLS/uL
  BASOPHIL: 0%
  EOSINOPHIL: 0%
  ERYTHROCYTE COUNT: 5.43 x10E6/uL
  HEMATOCRIT: 33.93%
  HEMOGLOBIN: 13.03 G/DL
  LEUKOCYTE COUNT: 10.3 x10E3/uL
  LYMPHOCYTE: 89.33%
  MEAN CORPUSCULAR HEMOGLOBIN: 24.03 pg
  MEAN CORPUSCULAR HEMOGLOBIN CONCENTRATION: 38.4 G/DL
  MEAN CORPUSCULAR VOLUME: 62.6 fL
  MONOCYTE: 1.33%
  NEUTROPHIL: 9.33%
  NUCLEATED RED BLOOD CELLS: 0 /100WBC
  PLATELET COUNT: 1124 x10E3/uL
  ALANINE AMINOTRANSFERASE: 72 u/L
  ALKALINE PHOSPHATASE: 422 u/L
  ASPARTATE AMINOTRANSFERASE: 86 u/L
  BLOOD UREA NITROGEN: 10.33 mg/dL
  CARBON DIOXIDE: 34.33 mmol/L
  CHLORIDE: 98.67 MEQ/L
  CHOLESTEROL: 71.67 mg/dL
  CREATINE PHOSPHOKINASE: 319.33 u/L
  CREATININE: 0.11 mg/dL
  GLUCOSE: 145.33 mg/dL
  LACTATE DEHYDROGENASE: 130.67 u/L
  LIPASE: 11.33 u/L
  PHOSPHORUS: 10.8 mg/dL
  POTASSIUM: 6.13 MEQ/L
  SODIUM: 144.4 MEQ/L
  TOTAL BILIRUBIN: 0.2 mg/dL
  TOTAL PROTEIN: 5.6 G/DL

From ChEMBL document CHEMBL3885881, “DrugMatrix”
